# PubChem BioAssay AID330 (DTP/NCI, 2004)
# Several values for one entry are separate records, joined by “and”; a condition that tells them apart may be missing. Equal entries are not always repeated. Inconclusive results and toxic doses are left out.
# Test system: P388 leukemia ip, CD2F1 mice, survival T/C
# Assay: NCI In Vivo Anticancer Drug Screen. Data for tumor model P388 Leukemia (intraperitoneal) in CD2F1 (CDF1) mice
# Settings: endpoint: median survival time, higher = longer survival
# Method in brief: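 Mice carrying the transplanted tumor received test compound or vehicle. Survival was recorded in each group, and the value is the treated-group measurement divided by that of the vehicle-treated control group.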
# [1] = dose: 100.0 mg/kg/injection, schedule: Q04DX002 (ip), vehicle: saline
# [2] = dose: 200.0 mg/kg/injection, schedule: Q04DX002 (ip), vehicle: saline
# [3] = dose: 400.0 mg/kg/injection, schedule: Q04DX002 (ip), vehicle: saline
# [4] = dose: 50.0 mg/kg/injection, schedule: Q01DX009 (ip), vehicle: saline
# [5] = dose: 100.0 mg/kg/injection, schedule: Q01DX009 (ip), vehicle: saline
# [6] = dose: 200.0 mg/kg/injection, schedule: Q01DX009 (ip), vehicle: saline
# [7] = dose: 50.0 mg/kg/injection, schedule: Q01DX009 (ip), vehicle: saline with Tween-80
# [8] = dose: 100.0 mg/kg/injection, schedule: Q01DX009 (ip), vehicle: saline with Tween-80
# [9] = dose: 200.0 mg/kg/injection, schedule: Q01DX009 (ip), vehicle: saline with Tween-80
# [10] = dose: 25.0 mg/kg/injection, schedule: Q01DX009 (ip), vehicle: saline
# [11] = dose: 50.0 mg/kg/injection, schedule: Q01DX009 (ip), vehicle: Klucel (hydroxypropylcellulose) (HPC)
# [12] = dose: 100.0 mg/kg/injection, schedule: Q01DX009 (ip), vehicle: Klucel (hydroxypropylcellulose) (HPC)
smiles,measurement,setting,value
CC1(C)CC(OC(=S)S)CC(C)(C)N1O,T/C,[1],100 % of control
same,T/C,[2],98 % of control
same,T/C,[3],100 % of control
CC(C)c1cccc(C2(C)C(=O)c3ccccc3C2=O)c1,T/C,[1],99 % of control
same,T/C,[2],102 % of control
same,T/C,[3],100 % of control
O=c1cc[nH]cc1,T/C,[4],100 % of control and 103 % of control
same,T/C,[5],103 % of control and 109 % of control
same,T/C,[6],101 % of control and 113 % of control
same,T/C,"dose: 400.0 mg/kg/injection, schedule: Q01DX009 (ip), vehicle: saline",111 % of control and 116 % of control
same,T/C,"dose: 600.0 mg/kg/injection, schedule: Q01DX009 (ip), vehicle: saline",112 % of control and 113 % of control
c1ccc(Cc2ccccc2)cc1,T/C,[7],105 % of control
same,T/C,[8],110 % of control
same,T/C,[9],109 % of control
C=C(C)C1CCC2(CO)C(O)CC3(C)C(CCC4C5(C)CCC(O)C(C)(C)C5CCC43C)C12 (centres undefined),T/C,"dose: 15.0 mg/kg/injection, schedule: Q01DX009 (ip), vehicle: Klucel (hydroxypropylcellulose) (HPC)",93 % of control
same,T/C,"dose: 30.0 mg/kg/injection, schedule: Q01DX009 (ip), vehicle: Klucel (hydroxypropylcellulose) (HPC)",94 % of control
same,T/C,"dose: 60.0 mg/kg/injection, schedule: Q01DX009 (ip), vehicle: Klucel (hydroxypropylcellulose) (HPC)",86 % of control
same,T/C,"dose: 120.0 mg/kg/injection, schedule: Q01DX009 (ip), vehicle: Klucel (hydroxypropylcellulose) (HPC)",92 % of control
O=C1c2ccccc2C(=O)N1/N=[N+](\[O-])c1ccccc1,T/C,"dose: 25.0 mg/kg/injection, schedule: Q01DX005 (ip), vehicle: Klucel (hydroxypropylcellulose) (HPC)",105 % of control
same,T/C,"dose: 50.0 mg/kg/injection, schedule: Q01DX005 (ip), vehicle: Klucel (hydroxypropylcellulose) (HPC)",88 % of control
same,T/C,"dose: 100.0 mg/kg/injection, schedule: Q01DX005 (ip), vehicle: Klucel (hydroxypropylcellulose) (HPC)",106 % of control
same,T/C,"dose: 200.0 mg/kg/injection, schedule: Q01DX005 (ip), vehicle: Klucel (hydroxypropylcellulose) (HPC)",110 % of control
CCCCCC1(O)OC(=O)C(C)=C1C (centres undefined),T/C,"dose: 12.5 mg/kg/injection, schedule: Q04DX003 (ip), vehicle: saline",100 % of control
same,T/C,"dose: 25.0 mg/kg/injection, schedule: Q04DX003 (ip), vehicle: saline",100 % of control
same,T/C,"dose: 50.0 mg/kg/injection, schedule: Q04DX003 (ip), vehicle: saline",122 % of control
OCC1(OC2OC(CF)C(O)C(O)C2O)OC(CF)C(O)C1O (centres undefined),T/C,"dose: 60.0 mg/kg/injection, schedule: Q01DX005 (ip), vehicle: saline",102 % of control
same,T/C,"dose: 120.0 mg/kg/injection, schedule: Q01DX005 (ip), vehicle: saline",101 % of control
O=C1c2ccccc2C(=O)c2c(O)c(CBr)c(CBr)c(O)c21,T/C,"dose: 50.0 mg/kg/injection, schedule: Q01DX005 (ip), vehicle: saline with Tween-80",96 % of control
same,T/C,"dose: 100.0 mg/kg/injection, schedule: Q01DX005 (ip), vehicle: saline with Tween-80",104 % of control
same,T/C,"dose: 200.0 mg/kg/injection, schedule: Q01DX005 (ip), vehicle: saline with Tween-80",95 % of control
CCCCCCCCCCCC(=O)N(CCO)CCc1ccccc1,T/C,[10],101 % of control and 91 % of control
same,T/C,[4],101 % of control and 109 % of control and 95 % of control
same,T/C,[5],100 % of control and 103 % of control
same,T/C,[6],103 % of control and 110 % of control
Cc1ccccc1N1C(=O)CC2(CCCC2)C1=O,T/C,[7],97 % of control
same,T/C,[8],113 % of control
same,T/C,[9],94 % of control
Cc1c(Br)c(Br)nn1C(C)C(=O)N(C)C (centres undefined),T/C,[11],110 % of control
same,T/C,[12],99 % of control
same,T/C,"dose: 200.0 mg/kg/injection, schedule: Q01DX009 (ip), vehicle: Klucel (hydroxypropylcellulose) (HPC)",101 % of control
COC1OC(C)C(=O)C2OC12 (centres undefined),T/C,[11],112 % of control
same,T/C,[12],116 % of control
CC(=NC(C)(C)C)N1CCCCC1,T/C,[10],106 % of control
same,T/C,[4],100 % of control and 90 % of control
same,T/C,[5],105 % of control
CC1(C)N=C(N)N=C(N)N1c1cccc(CNC(=O)Nc2cccc(S(=O)(=O)F)c2)c1,T/C,"dose: 44.0 mg/kg/injection, schedule: Q01DX009 (ip), vehicle: saline with Tween-80",159 % of control
same,T/C,[4],163 % of control
same,T/C,"dose: 67.0 mg/kg/injection, schedule: Q01DX009 (ip), vehicle: saline with Tween-80",163 % of control
same,T/C,[8],168 % of control
